In patent US20240166693A1, “METHODS AND COMPOUNDS FOR MODULATING MYOTONIC DYSTROPY 1” (Design Therapeutics, Inc., priority 2020, published 2024) one finds EC50 data, which are given here for 19 compounds.

Molecules are shown by their SMILES. pEC50: −log10 of the molar value.

One may read the EC50 as the concentration that produces a half-maximal response. The pEC50 is −log10 of the EC50, conventionally taken in molar units.

The first experiment has as its system Myotonic Dystrophy 1 affected patient fibroblasts (Coriell GM04602; 1600 CTG repeats). As to the kind of experiment: DM1 foci reduction assay (CAG10-Cy3 FISH, average foci per nucleus). It is filed as cell-based. To be noted: Homo sapiens, Fibroblast, 48 h, read-out: Foci Reduction in Fibroblast EC50, 48 h (nM). The protocol:
DM1 foci reduction assay methods: Myotonic Dystrophy 1 affected patient fibroblasts (Coriell GM04602; 1600 CTG repeats) and wild type fibroblasts (Coriell GM07492; control line) were cultured separately in Gibco DMEM (1×)+4.5 g/L D-Glucose+L-Glutamine+110 mg/L Sodium Pyruvate, supplemented with 10% FBS and 1× Pen/Strep. Cells were maintained in incubator at 37° C. and 5% CO2 with media refresh every 48-72 hours.
At 90-95% confluency, both cell lines were harvested using Trypl-E then pelleted at 500×g for 5 minutes and were resuspended in media. DM1 fibroblasts were seeded in Agilent 96 well black plates at a density of 5,000 cells/well in 200 μL media; 8 wells were reserved for control fibroblasts. Plates were returned to incubator for 24 hours at 37° C. and 5% CO2.
Compounds were diluted from 10 mM stock to 1 mM in DMSO, then diluted once more to 6 μM (2× concentration) in media. Media was removed from all plates and cells were replenished with 100 μL media. Cells were treated in 8-point dose response, 1:3 fold dilution, 3 μM top dose via addition of 100 μL of 6 μM (2× concentration) compound to the 100 μL media with cells. Plates were returned to incubator for 48-hour time-course experiment at 37° C. and 5% CO2.
Following treatment, compounds were removed, and plates were washed with PBS, then cells were fixed in 75 μL 4% PFA solution for 20 minutes at room temperature. Plates were washed twice with PBS and twice with cold 70% ethanol before permeabilization with 250 μL cold 70% ethanol for 24-72 hours at −20° C.
After permeabilization, plates were washed once with a 30% formamide and 2×SSC buffer and rehydrated in that buffer for 15 minutes at room temperature. Cells were incubated overnight at 37° C. in 75 μL of a hybridization solution containing 30% formamide, 2×SSC, 25 mg/mL dextran sulfate, 2.5 mg/mL BSA, 0.2 μg/mL Herring sperm DNA, 2 mM vanadyl-ribonucleoside complex, and 5 nM CAG10-Cy3 probe.
Plates were washed once with 30% formamide in 2×SSC buffer, then twice with the buffer for 30 minutes at 37° C., 300 RPM in an incubating plate shaker. Cells were stained with 75 μL of 2.5 μg/mL DAPI in PBS for 5 minutes at room temperature. Plates were then washed twice with PBS and stored in 250 μL PBS. Plates were sealed with adhesive foil and wiped down with 70% ethanol.
Cells were imaged on a Cytation5 with a 20× objective sampling from 4 areas of each well. Nuclei were captured under DAPI channel and foci under RFP channel. Plates were analyzed on an average foci per nucleus per well basis.
With `CCN(CC)CCCC[C@H](NC(=O)[C@H](CC(C)C)NC(=O)[C@H](C)NC(=O)[C@H](Cc1ccccc1)NC(=O)c1ccc(C(C)(C)C)cc1)C(=O)N[C@@H](CO)C(=O)N1CCN(CCOCCOCCOCCOCCNC(=O)CCNC(=O)c2nc(NC(=O)c3cc(NC(=O)CCNC(=O)c4nc(NC(=O)CCCNC(=O)c5cc(NC(=O)c6nc(NC(=O)CCNC(=O)c7cc(NC(=O)c8nccn8C)cn7C)cn6C)cn5C)cn4C)cn3C)cn2C)CC1` [Compound 185], the EC50 was in the range of 100 to 500 nM.
For `CCN(CC)CCCC[C@H](NC(=O)[C@H](CC(C)C)NC(=O)[C@H](C)NC(=O)[C@H](Cc1ccccc1)NC(=O)c1ccc(C(C)(C)C)cc1)C(=O)N[C@@H](CO)C(=O)NCCOCCOCCOCCOCCOCCNC(=O)c1cc(NC(=O)c2cc(NC(=O)c3nc(NC(=O)c4cc(NC(=O)CCCNC(=O)c5nc(NC(=O)CCNC(=O)c6cc(NC(=O)c7nccn7C)cn6C)cn5C)cn4C)cn3C)cn2C)cn1C` [Compound 113], the EC50 was above 500 nM.
Regarding `CCN(CC)CCCCC(NC(=O)[C@H](CC(C)C)NC(=O)C(C)NC(=O)[C@H](Cc1ccccc1)NC(=O)c1ccc(C(C)(C)C)cc1)C(=O)N[C@@H](CO)C(=O)NCCCN(C)CCCNC(=O)CCNC(=O)c1nc(NC(=O)c2cc(NC(=O)CCNC(=O)c3nc(NC(=O)CCCNC(=O)c4cc(NC(=O)c5nc(NC(=O)CCNC(=O)c6cc(NC(=O)c7nccn7C)cn6C)cn5C)cn4C)cn3C)cn2C)cn1C` (stereo in doubt) [Compound 71], the EC50 was above 500 nM.
Turning to `CCN(CC)CCCC[C@H](NC(=O)COCCOCCNC(=O)c1ccc(C(C)(C)C)cc1)C(=O)N[C@@H](CO)C(=O)NCCOCCOCCNC(=O)CCNC(=O)c1nc(NC(=O)c2cc(NC(=O)CCNC(=O)c3nc(NC(=O)CCCNC(=O)c4cc(NC(=O)c5nc(NC(=O)CCNC(=O)c6cc(NC(=O)c7nccn7C)cn6C)cn5C)cn4C)cn3C)cn2C)cn1C` [Compound 81], the EC50 is below 100 nM.
In the case of `CCN(CC)CCCC[C@H](NC(=O)COCCNC(=O)c1cnn(-c2ccc(C(C)(C)C)cc2)c1)C(=O)N[C@@H](CO)C(=O)NCCOCCOCCOCCOCCOCCNC(=O)CCNC(=O)c1nc(NC(=O)c2cc(NC(=O)CCNC(=O)c3nc(NC(=O)CCCNC(=O)c4cc(NC(=O)c5nc(NC(=O)CCNC(=O)c6cc(NC(=O)c7nccn7C)cn6C)cn5C)cn4C)cn3C)cn2C)cn1C` [Compound 150], the EC50 is above 500 nM.
Turning to `CCN(CC)CCCC[C@H](NC(=O)[C@H](CC(C)C)NC(=O)[C@H](C)NC(=O)[C@H](Cc1ccccc1)NC(=O)c1ccccc1)C(=O)N[C@@H](CO)C(=O)NCCOCCOCCOCCOCCOCCNC(=O)CCNC(=O)c1nc(NC(=O)c2cc(NC(=O)CCNC(=O)c3nc(NC(=O)CCCNC(=O)c4cc(NC(=O)c5nc(NC(=O)CCNC(=O)c6cc(NC(=O)c7nccn7C)cn6C)cn5C)cn4C)cn3C)cn2C)cn1C` [Compound 87], the EC50 is below 100 nM.
On the same count and under the same terms, under `CCN(CC)CCCC[C@H](NC(=O)[C@H](CC(C)C)NC(=O)[C@H](C)NC(=O)[C@H](Cc1ccccc1)NC(=O)c1ccc(C(C)(C)C)cc1)C(=O)N[C@@H](CO)C(=O)NCCOCCOCCOCCOCCOCCNC(=O)CCNC(=O)c1nc(NC(=O)c2cc(NC(=O)CCNC(=O)c3nc(NC(=O)[C@@H](CCNC(=O)c4cc(NC(=O)c5nc(NC(=O)CCNC(=O)c6cc(NC(=O)c7nccn7C)cn6C)cn5C)cn4C)NC(C)=O)cn3C)cn2C)cn1C` [Compound 102] stands 100 to 500 nM.
For the compound `CCN(CC)CCCC[C@H](NC(=O)[C@H](CC(C)C)NC(=O)[C@H](C)NC(=O)[C@H](Cc1ccccc1)NC(=O)c1ccc(C(C)(C)C)cc1)C(=O)N[C@@H](CO)C(=O)N1CCC(N2CCN(CCOCCOCCOCCOCCNC(=O)CCNC(=O)c3nc(NC(=O)c4cc(NC(=O)CCNC(=O)c5nc(NC(=O)CCCNC(=O)c6cc(NC(=O)c7nc(NC(=O)CCNC(=O)c8cc(NC(=O)c9nccn9C)cn8C)cn7C)cn6C)cn5C)cn4C)cn3C)CC2)CC1` [Compound 184], the EC50 was above 500 nM.
Turning to `CCN(CC)CCCC[C@H](NC(=O)[C@H](CC(C)C)NC(=O)[C@H](C)NC(=O)[C@H](Cc1ccccc1)NC(=O)c1ccc(C(C)(C)C)cc1)C(=O)N[C@@H](CO)C(=O)NCCOCCOCCOCCOCCNC(=O)CCNC(=O)c1nc(NC(=O)c2cc(NC(=O)CCNC(=O)c3nc(NC(=O)CCCNC(=O)c4cc(NC(=O)c5nc(NC(=O)CCNC(=O)c6cc(NC(=O)c7nccn7C)cn6C)cn5C)cn4C)cn3C)cn2C)cn1C` [Compound 72], the EC50 was below 100 nM.
On to `CCN(CC)CCCC[C@H](NC(=O)[C@H](CC(C)C)NC(=O)[C@H](C)NC(=O)[C@H](Cc1ccccc1)NC(=O)c1ccc(C(C)(C)C)cc1)C(=O)N[C@@H](CO)C(=O)NCCOCCOCCNC(=O)c1cc(NC(=O)c2cc(NC(=O)c3nc(NC(=O)c4cc(NC(=O)[C@@H](N)CCNC(=O)c5nc(NC(=O)CCNC(=O)c6cc(NC(=O)c7nccn7C)cn6C)cn5C)cn4C)cn3C)cn2C)cn1C` [Compound 82], for which the concentration giving a half-maximal response (EC50) is above 500 nM.
On the same count and under the same terms, for `CCN(CC)CCCC[C@H](NC(=O)[C@H](CC(C)C)NC(=O)[C@H](C)NC(=O)[C@H](Cc1ccccc1)NC(=O)c1ccc(C(C)(C)C)cc1)C(=O)N[C@@H](CO)C(=O)NCCOCCOCCOCCOCCOCCOCCOCCOCCOCCOCCOCCOCCOCCOCCOCCNC(=O)CCNC(=O)c1nc(NC(=O)c2cc(NC(=O)CCNC(=O)c3nc(NC(=O)CCCNC(=O)c4cc(NC(=O)c5nc(NC(=O)CCNC(=O)c6cc(NC(=O)c7nccn7C)cn6C)cn5C)cn4C)cn3C)cn2C)cn1C` [Compound 27] the value was below 100 nM.
Take `CCN(CC)CCCC[C@H](NC(=O)Cc1nc2cc(CC(=O)Nc3ccc(C(C)(C)C)cc3)cnc2[nH]1)C(=O)N[C@@H](CO)C(=O)NCCOCCOCCOCCOCCOCCNC(=O)CCNC(=O)c1nc(NC(=O)c2cc(NC(=O)CCNC(=O)c3nc(NC(=O)CCCNC(=O)c4cc(NC(=O)c5nc(NC(=O)CCNC(=O)c6cc(NC(=O)c7nccn7C)cn6C)cn5C)cn4C)cn3C)cn2C)cn1C` [Compound 152]: the EC50 was 100 to 500 nM.

Still in this experiment, the particulars now being: Homo sapiens, Fibroblast; DM1 fibroblasts, 48 h treatment, 8-point dose response, 3 μM top dose; read-out: Foci Reduction in Fibroblast EC50, 48 h.
For the compound `CCN(CC)CCCCCC(=O)NCC(=O)NCCOCCOCCOCCOCCOCCNC(=O)CCNC(=O)c1nc(NC(=O)c2cc(NC(=O)CCNC(=O)c3nc(NC(=O)CCCNC(=O)c4cc(NC(=O)c5nc(NC(=O)CCNC(=O)c6cc(NC(=O)c7nccn7C)cn6C)cn5C)cn4C)cn3C)cn2C)cn1C` [Compound 158], the pEC50 was below 6.30.
For `CN(C)[C@H]1CN(C2CCc3cccc(F)c32)C[C@@H]1c1ccc(N2CCN(S(=O)(=O)CCOCCOCCOCCOCCOCCNC(=O)CCNC(=O)c3nc(NC(=O)c4cc(NC(=O)CCNC(=O)c5nc(NC(=O)CCCNC(=O)c6cc(NC(=O)c7nc(NC(=O)CCNC(=O)c8cc(NC(=O)c9nccn9C)cn8C)cn7C)cn6C)cn5C)cn4C)cn3C)CC2)cc1` (stereo partly shown) [Compound 147], the pEC50 was below 6.30.
In the case of `Cn1cc(NC(=O)c2nc(NC(=O)CCNC(=O)c3cc(NC(=O)c4nccn4C)cn3C)cn2C)cc1C(=O)NCCCC(=O)Nc1cn(C)c(C(=O)NCCC(=O)Nc2cc(C(=O)Nc3cn(C)c(C(=O)NCCC(=O)NCCOCCOCCn4cc(CC(=O)Nc5ccc(C(=O)Nc6ccccc6N)cc5)nn4)n3)n(C)c2)n1` [Compound 123], the pEC50 is below 6.30.
Take `Cc1nc(CCC(=O)NCCOCCOCCOCCOCCOCCOCCOCCOCCOCCOCCOCCOCCOCCOCCOCCNC(=O)CCNC(=O)c2nc(NC(=O)c3cc(NC(=O)CCNC(=O)c4nc(NC(=O)CCCNC(=O)c5cc(NC(=O)c6nc(NC(=O)CCNC(=O)c7cc(NC(=O)c8nccn8C)cn7C)cn6C)cn5C)cn4C)cn3C)cn2C)ccc1-c1cnc(NCc2c(F)ccc3c2CCO3)n2cnnc12` [Compound 63]: the pEC50 was below 6.30.
In the case of `CCCCCCNc1nc(NC2CCN(CCOCCOCCOCCOCCOCCNC(=O)CCNC(=O)c3nc(NC(=O)c4cc(NC(=O)CCNC(=O)c5nc(NC(=O)CCCNC(=O)c6cc(NC(=O)c7nc(NC(=O)CCNC(=O)c8cc(NC(=O)c9nccn9C)cn8C)cn7C)cn6C)cn5C)cn4C)cn3C)CC2)c2cc(OC)c(OC)cc2n1` [Compound 190], the pEC50 was below 6.30.
For the compound `Cn1cc(NC(=O)c2nc(NC(=O)CCNC(=O)c3cc(NC(=O)c4nc(NC(=O)CCNC(=O)c5cccn5C)cn4C)cn3C)cn2C)cc1C(=O)NCCC(=O)Nc1cn(C)c(C(=O)NCCOCCOCCOCCOCCOCCOCCOCCOCCOCCOCCN2CCC(C(=O)Nc3ncc(SCc4ncc(C(C)(C)C)o4)s3)CC2)n1` [Compound 2], the negative-log EC50 (pEC50) was above 7.00.
Take `CCCCCCNc1nc(NC2CCN(CCOCCOCCOCCOCCOCCOCCOCCOCCOCCOCCNC(=O)CCNC(=O)c3nc(NC(=O)c4cc(NC(=O)CCNC(=O)c5nc(NC(=O)CCCNC(=O)c6cc(NC(=O)c7nc(NC(=O)CCNC(=O)c8cc(NC(=O)c9nccn9C)cn8C)cn7C)cn6C)cn5C)cn4C)cn3C)CC2)c2cc(OC)c(OC)cc2n1` [Compound 191]: the pEC50 was below 6.30.
